Test results taken from PubChem BioAssay AID652225 (The Scripps Research Institute Molecular Screening Center, 2013).
Active and inactive are the calls of the source.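 How the source made its calls: active means compounds inhibiting PP5 with an IC50 below 50 µM; inactive means IC50 of 50 µM or more.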

molecular target: Serine/threonine-protein phosphatase 5 (Homo sapiens) (UniProt P53041); experiment: PP5 inhibition of phosphorylase dephosphorylation, late-stage follow-up, selectivity assay for PP1 inhibitor project, biochemical, radiolabel, glycogen phosphorylase substrate, set 2 (AID 652225); conditions: purified PP5c, 32P-glycogen phosphorylase dephosphorylation, scintillation
Sequence (P53041 whole entry, looked up): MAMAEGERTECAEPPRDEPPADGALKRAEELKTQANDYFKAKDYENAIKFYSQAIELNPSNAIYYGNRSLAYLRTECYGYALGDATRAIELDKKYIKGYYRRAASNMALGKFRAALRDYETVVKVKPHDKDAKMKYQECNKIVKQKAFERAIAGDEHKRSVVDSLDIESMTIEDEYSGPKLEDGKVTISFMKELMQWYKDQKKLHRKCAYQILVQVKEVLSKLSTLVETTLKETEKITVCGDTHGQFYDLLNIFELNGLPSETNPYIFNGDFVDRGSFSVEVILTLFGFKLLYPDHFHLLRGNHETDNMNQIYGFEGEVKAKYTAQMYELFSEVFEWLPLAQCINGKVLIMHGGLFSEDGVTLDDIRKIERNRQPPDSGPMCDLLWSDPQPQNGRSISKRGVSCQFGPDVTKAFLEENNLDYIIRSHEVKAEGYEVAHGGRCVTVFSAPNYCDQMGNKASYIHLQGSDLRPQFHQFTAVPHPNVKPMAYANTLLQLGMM

Structure (SMILES) | IC50
COc1ccc(NC(=O)C2C3CCC(O3)C2C(=O)O)c(OC)c1 (stereo not given) | 4.16 µM
N#Cc1c(-c2ccc(Cl)cc2)cc(-c2cccs2)nc1SCC(=O)O | > 50 µM (inactive)
CCn1c2ccccc2c2cc(NC(=O)COC(=O)c3ccc(NC(=O)CC#N)cc3)ccc21 | > 50 µM (inactive)
CCOC(=O)c1sc2nc3c(SCC(=O)O)cc(C(=O)c4cc(F)ccc4O)cn3c(=O)c2c1C | > 50 µM (inactive)
CN1CCN(C(c2ccccn2)c2cc(Cl)c3cccnc3c2O)CC1 (stereo not given) | > 50 µM (inactive)
